# According to article PMC9878345 (Frontiers in Chemistry, 2023):
# Values joined by “and” are separate entries in the source; they are usually repeats but may differ in a detail not shown here. Equal entries are not always repeated. Where two headings read alike, the source gives them in different places.
# Experiments:
# SARS-CoV-2 PLpro [1] = target: T1, SARS-CoV-2 PLpro (Severe acute respiratory syndrome coronavirus 2, UniProt P0DTD1); experiment: biochemical; format: biochemical; details: for inhibitory activity towards PLpro proteolytic activity (in words): at the tested concentrations (50, 100, 200 μM); for IC50 / IC50, PLpro proteolytic activity (Figure 5) / IC50 towards PLpro proteolytic activity: dose-dependent study; for IC50 / IC50 towards PLpro proteolytic activity: 0–100 µM, non-linear regression; for inhibition at 50 µM / inhibition at 200 µM / inhibition at 100 µM: read-out: inhibition of PLpro proteolytic activity; for inhibition activity in SARS-CoV-2 PLpro enzymatic activity: concentration not stated
# SARS-CoV-2 PLpro [2] = target: T1, SARS-CoV-2 PLpro; experiment: biochemical
# Vero-E6 cells = experiment: Cell viability assay (PrestoBlue); format: cell-based, African green monkey; details: for cytotoxicity (in words): 24, 48, 72 h at 50, 100, 200 µM; for cytotoxicity: at the tested doses and time points
# Method: The cytotoxic effect of selected phytochemicals were carried out with Vero-E6 cells using PrestoBlue™ Cell Viability kit as described earlier ([Lewis et al., 2022]). Briefly, Vero-E6 cells (20,000 cells) were seeded overnight in 96 well plates. Then, 100 µL of complete media (EMEM+10% FBS+1%Pen/Strep) was added to refresh the cells along with 50, 100, and 200 µM selected phytochemicals, and incubation was continued for 24, 48, and 72 hs at 37°C respectively. Cytotoxicity detection regent (PrestoBlue solution) was added and incubated for additional 1h at 37°C. The absorbance was taken at 530/25 excitation and 590/35 nm emission using Bio-Tek Synergy HT fluorescent plate reader.
# [3] = read-out: IC50 towards PLpro proteolytic activity
# [4] = read-out: inhibition of PLpro DUB activity
compound,measurement,setting,value
"COc1cc2oc3cc(O)c(OC)c(CC=C(C)C)c3c(=O)c2c(O)c1CC=C(C)C [β-mangostin, b-Mangostin]",inhibitory activity towards PLpro proteolytic activity (in words),SARS-CoV-2 PLpro [1],Only γ-mangostin and mangiferin exhibited more than 50% inhibitory activity
O=c1c(-c2ccc(O)cc2)coc2cc(O[C@@H]3O[C@H](CO)[C@@H](O)[C@H](O)[C@H]3O)cc(O)c12 [genistin],inhibitory activity towards PLpro proteolytic activity (in words),SARS-CoV-2 PLpro [1],"none of the tested isoflavone compounds such as daidzein, daidzin, genistein, genistin, and isoflorentin demonstrated an inhibitory effect"
"C[C@@H]1CC[C@H]2[C@@H](C)C(=O)O[C@@H]3O[C@@]4(C)CC[C@@H]1[C@]32OO4 [artemisinin, reference compound]",inhibitory activity towards PLpro proteolytic activity (in words),SARS-CoV-2 PLpro [1],did not show inhibitory activity
O=c1c(-c2ccc(O)cc2)coc2cc(O[C@@H]3O[C@H](CO)[C@@H](O)[C@H](O)[C@H]3O)ccc12 [daidzin],inhibitory activity towards PLpro proteolytic activity (in words),SARS-CoV-2 PLpro [1],"none of the tested isoflavone compounds such as daidzein, daidzin, genistein, genistin, and isoflorentin demonstrated an inhibitory effect"
O=c1c(-c2ccc(O)cc2)coc2cc(O)cc(O)c12 [genistein],inhibitory activity towards PLpro proteolytic activity (in words),SARS-CoV-2 PLpro [1],"none of the tested isoflavone compounds such as daidzein, daidzin, genistein, genistin, and isoflorentin demonstrated an inhibitory effect"
O.Oc1cc(O)c2c(c1)O[C@H](c1ccc(O)c(O)c1)[C@@H](O)C2 [catechin],inhibition of PLpro DUB activity,"SARS-CoV-2 PLpro [2]; 50 μM, vs DMSO control",30%
same,inhibition of PLpro DUB activity,"SARS-CoV-2 PLpro [2]; 100 μM, vs DMSO control",40%
same,inhibition of PLpro DUB activity,"SARS-CoV-2 PLpro [2]; 200 μM, vs DMSO control",50%
same,inhibition of PLpro proteolytic activity,"SARS-CoV-2 PLpro [1]; 50 μM, vs DMSO control",25%
same,inhibition of PLpro proteolytic activity,"SARS-CoV-2 PLpro [1]; 100 μM, vs DMSO control",44%
same,inhibition of PLpro proteolytic activity,"SARS-CoV-2 PLpro [1]; 200 μM, vs DMSO control",64%
same,IC50,SARS-CoV-2 PLpro [1]; [3],14.2 µM
CC1(C)[C@@H](O[C@H]2O[C@H](C(=O)O)[C@@H](O)[C@H](O)[C@H]2O[C@@H]2O[C@H](C(=O)O)[C@@H](O)[C@H](O)[C@H]2O)CC[C@]2(C)[C@H]3C(=O)C=C4[C@@H]5C[C@@](C)(C(=O)O)CC[C@]5(C)CC[C@@]4(C)[C@]3(C)CC[C@@H]12 [glycyrrhizic acid],inhibitory activity towards PLpro proteolytic activity (in words),SARS-CoV-2 PLpro [1],did not show inhibitory activity
O=c1c(O)cc([C@H]2Oc3cc(O)cc(O)c3C[C@H]2O)cc2c([C@H]3Oc4cc(O)cc(O)c4C[C@H]3O)cc(O)c(O)c12 [theaflavin],inhibition of PLpro DUB activity,"SARS-CoV-2 PLpro [2]; 50 μM, vs DMSO control",complete inhibition
same,IC50,"SARS-CoV-2 PLpro [2]; dose-dependent study, 0–100 µM, non-linear regression, read-out: IC50 for PLpro DUB activity",13.2 µM
same,IC50,"SARS-CoV-2 PLpro [2]; dose-dependent study, read-out: IC50, PLpro DUB activity (Figure 6)",13.2 µM
same,inhibition at 50 µM,"SARS-CoV-2 PLpro [1]; 50 μM, vs DMSO control",94%
same,inhibition at 200 µM,"SARS-CoV-2 PLpro [1]; 200 μM, vs DMSO control",100%
same,inhibition activity in SARS-CoV-2 PLpro enzymatic activity,SARS-CoV-2 PLpro [1],more than 50%
same,IC50,SARS-CoV-2 PLpro [1]; [3],7.3 µM
C[C@@H]1O[C@@H](OC[C@H]2O[C@@H](Oc3c(-c4ccc(O)c(O)c4)oc4cc(O)cc(O)c4c3=O)[C@H](O)[C@@H](O)[C@@H]2O)[C@H](O)[C@H](O)[C@H]1O [rutin],inhibition at 50 µM,SARS-CoV-2 PLpro [1],70%
same,inhibition at 100 µM,SARS-CoV-2 PLpro [1],70%
same,inhibition at 200 µM,SARS-CoV-2 PLpro [1],88%
same,cytotoxicity (in words),Vero-E6 cells,not c ytotoxic
O=C1C=CC[C@@H]2[C@H]3CCCN4CCC[C@@H](CN12)[C@@H]34 [sophocarpine],inhibitory activity towards PLpro proteolytic activity (in words),SARS-CoV-2 PLpro [1],only colchicine out of all the tested alkaloids
CC1(C)OC(=O)C=C[C@]2(C)[C@H]3CC[C@@]4(C)[C@H](c5ccoc5)OC(=O)[C@H]5O[C@]54[C@]3(C)C(=O)C[C@@H]12 [obacunone],inhibitory activity towards PLpro proteolytic activity (in words),SARS-CoV-2 PLpro [1],did not show inhibitory activity
C/C=C1/[C@H](O[C@@H]2O[C@H](CO)[C@@H](O)[C@H](O)[C@H]2O)OC=C(C(=O)OC)[C@H]1CC(=O)OCCc1ccc(O)c(O)c1 [oleuropein],IC50,SARS-CoV-2 PLpro [2],132 µM
same,inhibition at 200 µM,SARS-CoV-2 PLpro [2]; [4],50%
same,"IC50, PLpro proteolytic activity (Figure 5)",SARS-CoV-2 PLpro [1],Ambiguous
same,IC50 towards PLpro proteolytic activity,SARS-CoV-2 PLpro [1],ambiguous
same,inhibition at 200 µM,SARS-CoV-2 PLpro [1],60%
same,cytotoxicity,Vero-E6 cells,20-30%
"O=c1c(O)c(-c2cc(O)c(O)c(O)c2)oc2cc(O)cc(O)c12 [myricetin, 3,5,7, 3′, 4′, 5′-hexahydroxyflavone]",cytotoxicity,Vero-E6 cells,20-30%
C=CCSSCC=C [diallyl disulfide],inhibitory activity towards PLpro proteolytic activity (in words),SARS-CoV-2 PLpro [1],did not show inhibitory activity
"O=C(O[C@@H]1Cc2c(O)cc(O)cc2O[C@@H]1c1cc(O)c(O)c(O)c1)c1cc(O)c(O)c(O)c1 [EGCG, epigallocatechin gallate]",inhibition at 50 µM,"SARS-CoV-2 PLpro [2]; 50 μM, vs DMSO control, read-out: inhibition of PLpro DUB activity",70%
same,inhibition at 100 µM,"SARS-CoV-2 PLpro [2]; 100 μM, vs DMSO control, read-out: inhibition of PLpro DUB activity",90%
same,inhibition at 200 µM,"SARS-CoV-2 PLpro [2]; 200 μM, vs DMSO control, read-out: inhibition of PLpro DUB activity",95%
same,inhibition at 50 µM,"SARS-CoV-2 PLpro [1]; 50 μM, vs DMSO control",65%
same,inhibition at 100 µM,"SARS-CoV-2 PLpro [1]; 100 μM, vs DMSO control",81%
same,inhibition at 200 µM,"SARS-CoV-2 PLpro [1]; 200 μM, vs DMSO control",97%
same,inhibition activity in SARS-CoV-2 PLpro enzymatic activity,SARS-CoV-2 PLpro [1],more than 50%
same,cytotoxicity (in words),Vero-E6 cells,not c ytotoxic
O[C@H]1[C@H]2c3cc4c(cc3CN3CCC(=C[C@@H]1O)[C@H]23)OCO4 [lycorine],inhibitory activity towards PLpro proteolytic activity (in words),SARS-CoV-2 PLpro [1],only colchicine out of all the tested alkaloids
O=c1c(-c2ccc(O)cc2)coc2cc(O)ccc12 [daidzein],inhibitory activity towards PLpro proteolytic activity (in words),SARS-CoV-2 PLpro [1],"none of the tested isoflavone compounds such as daidzein, daidzin, genistein, genistin, and isoflorentin demonstrated an inhibitory effect"
"O=c1c2cc(O)c(O)cc2oc2cc(O)c([C@@H]3O[C@H](CO)[C@@H](O)[C@H](O)[C@H]3O)c(O)c12 [mangiferin, 2-β-D-glucopyranosyl-1,3,6,7-tetrahydroxy-9H-xanthan-9-one]",IC50,SARS-CoV-2 PLpro [2],104 µM
same,inhibition at 200 µM,SARS-CoV-2 PLpro [2]; [4],10 to 30%
same,IC50,SARS-CoV-2 PLpro [1]; IC50 towards PLpro proteolytic activity,95.3 µM and 43.4 µM
same,inhibition of PLpro proteolytic activity,SARS-CoV-2 PLpro [1]; concentration not given,70%
same,inhibition at 200 µM,SARS-CoV-2 PLpro [1],> 50%
same,cytotoxicity (in words),Vero-E6 cells,not c ytotoxic
C=CCSSSCC=C [diallyl trisulfide],inhibitory activity towards PLpro proteolytic activity (in words),SARS-CoV-2 PLpro [1],did not show inhibitory activity
COc1cc(-c2coc3cc4c(c(OC)c3c2=O)OCO4)cc(OC)c1OC [isoflorentin],inhibitory activity towards PLpro proteolytic activity (in words),SARS-CoV-2 PLpro [1],"none of the tested isoflavone compounds such as daidzein, daidzin, genistein, genistin, and isoflorentin demonstrated an inhibitory effect"
COc1ccc2cc1Oc1ccc(cc1)C[C@H]1c3cc(c(OC)cc3CCN1C)Oc1c(OC)c(OC)cc3c1[C@H](C2)N(C)CC3 [tetrandrine],inhibitory activity towards PLpro proteolytic activity (in words),SARS-CoV-2 PLpro [1],only colchicine out of all the tested alkaloids
evodiamine,inhibitory activity towards PLpro proteolytic activity (in words),SARS-CoV-2 PLpro [1],only colchicine out of all the tested alkaloids
CC(C)=CCc1c(O)cc2oc3cc(O)c(O)c(CC=C(C)C)c3c(=O)c2c1O [γ-mangostin],"IC50, PLpro proteolytic activity (Figure 5)",SARS-CoV-2 PLpro [1],Ambiguous
same,IC50 towards PLpro proteolytic activity,SARS-CoV-2 PLpro [1],ambiguous
C=C(C)[C@@H]1CC[C@]2(C(=O)O)CC[C@]3(C)[C@H](CC[C@@H]4[C@@]5(C)CC[C@H](O)C(C)(C)[C@@H]5CC[C@]43C)[C@@H]12 [betulinic acid],inhibitory activity towards PLpro proteolytic activity (in words),SARS-CoV-2 PLpro [1],did not show inhibitory activity
CN1Cc2c(ccc3c2OCO3)[C@@H]2[C@H]1c1cc3c(cc1C[C@@H]2O)OCO3 [chelidonine],inhibitory activity towards PLpro proteolytic activity (in words),SARS-CoV-2 PLpro [1],only colchicine out of all the tested alkaloids
O=C(/C=C/c1ccc(O)c(O)c1)O[C@H](Cc1ccc(O)c(O)c1)C(=O)O [rosmarinic acid],inhibition at 200 µM,SARS-CoV-2 PLpro [1],50%
